According to the supplement of paper PMC10307832:

What was measured:
Experiment in all cases: relative viability (nuclei count vs DMSO), 5 days (fraction); higher = more cells survive
[1] = tested on: HARA
Method in brief: (§1)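 The day after seeding in 1536-well plates, lung cancer cell lines were treated by pin tool with a single drug, or with a fixed anchor-drug dose together with five library-drug doses (not always all listed) in √10 steps. After 5 days, a combined fix-and-stain solution (final 0.05% Triton X-100, 1% formaldehyde, 1 ug/ml Hoechst) was added. Nuclei counted on 4× images gave relative viability as treated counts over vehicle counts, reported as the median of duplicate plates.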

[2] = tested on: NCI-H441
Method in brief: as §1

[3] = tested on: NCI-H2126
Method in brief: as §1

[4] = tested on: NCI-H2023
Method in brief: as §1

[5] = tested on: HCC-15
Method in brief: as §1

[6] = tested on: A-427
Method in brief: as §1

[7] = tested on: SW 1573
Method in brief: as §1

[8] = tested on: LCLC-97TM1
Method in brief: as §1

[9] = tested on: NCI-H1734
Method in brief: as §1

[10] = tested on: LOU-NH91
Method in brief: as §1

[11] = tested on: COR-L23
Method in brief: as §1

[12] = tested on: HCC-366
Method in brief: as §1

[13] = tested on: RERF-LC-KJ
Method in brief: as §1

[14] = tested on: NCI-H460
Method in brief: as §1

[15] = tested on: NCI-H650
Method in brief: as §1

[16] = tested on: NCI-H1650
Method in brief: as §1

[17] = tested on: NCI-H2009
Method in brief: as §1

[18] = tested on: LCLC-103H
Method in brief: as §1

[19] = tested on: HCC-78
Method in brief: as §1

[20] = tested on: 201T
Method in brief: as §1

[21] = tested on: HCC-44
Method in brief: as §1

[22] = tested on: ChaGo-K-1
Method in brief: as §1

[23] = tested on: NCI-H1993
Method in brief: as §1

[24] = tested on: NCI-H1648
Method in brief: as §1

SMILES: CCCCCCCCCCCC1=C(O)C(=O)C=C(O)C1=O [Embelin] + N=C(N)NC(=N)NCCc1ccccc1 [Phenformin] (partner 250 µM)
- relative viability ([1]; first compound 0.08 µM): 0.438
- relative viability ([1]; first compound 0.8 µM): 0.56
- relative viability ([1]; first compound 2.53 µM): 0.497
- relative viability ([1]; first compound 8 µM): 0.455
- relative viability ([2]; first compound 0.08 µM): 0.698
- relative viability ([2]; first compound 0.8 µM): 0.897
- relative viability ([2]; first compound 2.53 µM): 0.957
- relative viability ([2]; first compound 8 µM): 0.982
- relative viability ([3]; first compound 0.08 µM): 0.556
- relative viability ([3]; first compound 0.8 µM): 0.609
- relative viability ([3]; first compound 2.53 µM): 0.591
- relative viability ([3]; first compound 8 µM): 0.476
- relative viability ([4]; first compound 0.08 µM): 0.383
- relative viability ([4]; first compound 0.8 µM): 0.469
- relative viability ([4]; first compound 2.53 µM): 0.418
- relative viability ([4]; first compound 8 µM): 0.327
- relative viability ([5]; first compound 0.08 µM): 0.477
- relative viability ([5]; first compound 0.8 µM): 0.504
- relative viability ([5]; first compound 2.53 µM): 0.461
- relative viability ([5]; first compound 8 µM): 0.438
- relative viability ([6]; first compound 0.08 µM): 0.359
- relative viability ([6]; first compound 0.8 µM): 0.411
- relative viability ([6]; first compound 2.53 µM): 0.328
- relative viability ([6]; first compound 8 µM): 0.363
- relative viability ([7]; first compound 0.08 µM): 0.433
- relative viability ([7]; first compound 0.8 µM): 0.366
- relative viability ([7]; first compound 2.53 µM): 0.479
- relative viability ([7]; first compound 8 µM): 0.376
- relative viability ([8]; first compound 0.08 µM): 0.452
- relative viability ([8]; first compound 0.8 µM): 0.432
- relative viability ([8]; first compound 2.53 µM): 0.465
- relative viability ([8]; first compound 8 µM): 0.469
- relative viability ([9]; first compound 0.08 µM): 0.383
- relative viability ([9]; first compound 0.8 µM): 0.521
- relative viability ([9]; first compound 2.53 µM): 0.526
- relative viability ([9]; first compound 8 µM): 0.327
- relative viability ([10]; first compound 0.08 µM): 0.757
- relative viability ([10]; first compound 0.8 µM): 0.895
- relative viability ([10]; first compound 2.53 µM): 0.566
- relative viability ([10]; first compound 8 µM): 0.492
- relative viability ([11]; first compound 0.08 µM): 0.448
- relative viability ([11]; first compound 0.8 µM): 0.542
- relative viability ([11]; first compound 2.53 µM): 0.426
- relative viability ([11]; first compound 8 µM): 0.462
- relative viability ([12]; first compound 0.08 µM): 0.646
- relative viability ([12]; first compound 0.8 µM): 0.638
- relative viability ([12]; first compound 2.53 µM): 0.644
- relative viability ([12]; first compound 8 µM): 0.676
- relative viability ([13]; first compound 0.08 µM): 0.431
- relative viability ([13]; first compound 0.8 µM): 0.461
- relative viability ([13]; first compound 2.53 µM): 0.418
- relative viability ([13]; first compound 8 µM): 0.356
- relative viability ([14]; first compound 0.08 µM): 0.535
- relative viability ([14]; first compound 0.8 µM): 0.595
- relative viability ([14]; first compound 2.53 µM): 0.66
- relative viability ([14]; first compound 8 µM): 0.256
- relative viability ([15]; first compound 0.08 µM): 0.436
- relative viability ([15]; first compound 0.8 µM): 0.524
- relative viability ([15]; first compound 2.53 µM): 0.312
- relative viability ([15]; first compound 8 µM): 0.44
- relative viability ([16]; first compound 0.08 µM): 0.434
- relative viability ([16]; first compound 0.8 µM): 0.558
- relative viability ([16]; first compound 2.53 µM): 0.485
- relative viability ([16]; first compound 8 µM): 0.376
- relative viability ([17]; first compound 0.08 µM): 0.495
- relative viability ([17]; first compound 0.8 µM): 0.598
- relative viability ([17]; first compound 2.53 µM): 0.44
- relative viability ([17]; first compound 8 µM): 0.295
- relative viability ([18]; first compound 0.08 µM): 0.337
- relative viability ([18]; first compound 0.8 µM): 0.343
- relative viability ([18]; first compound 2.53 µM): 0.367
- relative viability ([18]; first compound 8 µM): 0.286
- relative viability ([19]; first compound 0.08 µM): 0.661
- relative viability ([19]; first compound 0.8 µM): 0.729
- relative viability ([19]; first compound 2.53 µM): 0.761
- relative viability ([19]; first compound 8 µM): 0.929
- relative viability ([20]; first compound 0.08 µM): 0.432
- relative viability ([20]; first compound 0.8 µM): 0.49
- relative viability ([20]; first compound 2.53 µM): 0.482
- relative viability ([20]; first compound 8 µM): 0.385
- relative viability ([21]; first compound 0.08 µM): 0.175
- relative viability ([21]; first compound 0.8 µM): 0.252
- relative viability ([21]; first compound 2.53 µM): 0.0967
- relative viability ([21]; first compound 8 µM): 0.0958
- relative viability ([22]; first compound 0.08 µM): 0.547
- relative viability ([22]; first compound 0.8 µM): 0.503
- relative viability ([22]; first compound 2.53 µM): 0.586
- relative viability ([22]; first compound 8 µM): 0.482
- relative viability ([23]; first compound 0.08 µM): 0.499
- relative viability ([23]; first compound 0.8 µM): 0.542
- relative viability ([23]; first compound 2.53 µM): 0.489
- relative viability ([23]; first compound 8 µM): 0.467

SMILES: CCCCCCCCCCCC1=C(O)C(=O)C=C(O)C1=O [Embelin] + NC(=O)Nc1cc(-c2cccc(F)c2)sc1C(=O)N[C@H]1CCCNC1 [AZD7762] (partner 0.2 µM)
- relative viability ([1]; first compound 0.08 µM): 0.37
- relative viability ([1]; first compound 0.8 µM): 0.455
- relative viability ([1]; first compound 2.53 µM): 0.52
- relative viability ([1]; first compound 8 µM): 0.362
- relative viability ([2]; first compound 0.08 µM): 1.09
- relative viability ([2]; first compound 0.8 µM): 1.24
- relative viability ([2]; first compound 2.53 µM): 1.18
- relative viability ([2]; first compound 8 µM): 1.36
- relative viability ([3]; first compound 0.08 µM): 0.936
- relative viability ([3]; first compound 0.8 µM): 1.08
- relative viability ([3]; first compound 2.53 µM): 1.12
- relative viability ([3]; first compound 8 µM): 1
- relative viability ([5]; first compound 0.08 µM): 1.14
- relative viability ([5]; first compound 0.8 µM): 1.15
- relative viability ([5]; first compound 2.53 µM): 1.46
- relative viability ([5]; first compound 8 µM): 1.41
- relative viability ([6]; first compound 0.08 µM): 0.75
- relative viability ([6]; first compound 0.8 µM): 0.877
- relative viability ([6]; first compound 2.53 µM): 0.737
- relative viability ([6]; first compound 8 µM): 0.452
- relative viability ([24]; first compound 0.08 µM): 0.598
- relative viability ([24]; first compound 0.8 µM): 0.689
- relative viability ([24]; first compound 2.53 µM): 0.628
- relative viability ([24]; first compound 8 µM): 0.709
- relative viability ([8]; first compound 0.08 µM): 0.223
- relative viability ([8]; first compound 0.8 µM): 0.248
- relative viability ([8]; first compound 2.53 µM): 0.205
- relative viability ([8]; first compound 8 µM): 0.268
- relative viability ([9]; first compound 0.08 µM): 0.587
- relative viability ([9]; first compound 0.8 µM): 0.692
- relative viability ([9]; first compound 2.53 µM): 0.593
- relative viability ([9]; first compound 8 µM): 0.622
- relative viability ([10]; first compound 0.08 µM): 0.795
- relative viability ([10]; first compound 0.8 µM): 0.932
- relative viability ([10]; first compound 2.53 µM): 0.779
- relative viability ([10]; first compound 8 µM): 0.729
- relative viability ([12]; first compound 0.08 µM): 0.317
- relative viability ([12]; first compound 0.8 µM): 0.314
- relative viability ([12]; first compound 2.53 µM): 0.291
- relative viability ([12]; first compound 8 µM): 0.281
- relative viability ([13]; first compound 0.08 µM): 1.02
- relative viability ([13]; first compound 0.8 µM): 1.15
- relative viability ([13]; first compound 2.53 µM): 1.13
- relative viability ([13]; first compound 8 µM): 1
- relative viability ([14]; first compound 0.08 µM): 0.658
- relative viability ([14]; first compound 0.8 µM): 0.717
- relative viability ([14]; first compound 2.53 µM): 0.585
- relative viability ([14]; first compound 8 µM): 0.378
- relative viability ([15]; first compound 0.08 µM): 0.889
- relative viability ([15]; first compound 0.8 µM): 1.03
- relative viability ([15]; first compound 2.53 µM): 1.01
- relative viability ([15]; first compound 8 µM): 1.27
- relative viability ([18]; first compound 0.08 µM): 0.79
- relative viability ([18]; first compound 0.8 µM): 0.866
- relative viability ([18]; first compound 2.53 µM): 0.886
- relative viability ([18]; first compound 8 µM): 0.684
- relative viability ([19]; first compound 0.08 µM): 0.555
- relative viability ([19]; first compound 0.8 µM): 0.773
- relative viability ([19]; first compound 2.53 µM): 0.661
- relative viability ([19]; first compound 8 µM): 0.647
- relative viability ([20]; first compound 0.08 µM): 0.713
- relative viability ([20]; first compound 0.8 µM): 0.634
- relative viability ([20]; first compound 2.53 µM): 0.67
- relative viability ([20]; first compound 8 µM): 0.61
- relative viability ([21]; first compound 0.08 µM): 1.07
- relative viability ([21]; first compound 0.8 µM): 0.994
- relative viability ([21]; first compound 2.53 µM): 0.999
- relative viability ([21]; first compound 8 µM): 1.11
- relative viability ([22]; first compound 0.08 µM): 0.861
- relative viability ([22]; first compound 0.8 µM): 0.922
- relative viability ([22]; first compound 2.53 µM): 0.922
- relative viability ([22]; first compound 8 µM): 0.874
- relative viability ([23]; first compound 0.08 µM): 0.821
- relative viability ([23]; first compound 0.8 µM): 0.723
- relative viability ([23]; first compound 2.53 µM): 0.89
- relative viability ([23]; first compound 8 µM): 0.606
